Article PMC11599599, “Synthesis, characterization, molecular docking, pharmacokinetics, and molecular dynamics of new bis-thiazoles based on bis-thiosemicarbazone as anti-coxsackievirus” (Scientific Reports, 2024)

Experiments:
Vero cells = assay: Cytotoxicity assay on Vero cells (microscopic morphology); assay type: cell-based; parameters: key to Cytotoxicity on Vero cells (cell sheet affected): -: Safe concentration; + 1, +2, + 3, +4: about 25, 50, 75, 100% of cell sheet was affected respectively; + 1, +2, + 3, +4: about 25, 50, 75, 100% of cell sheet was affected respectively; + 1, +2, + 3, +4: about 25, 50, 75, 100% of cell sheet was affected respectively; + 1, +2, + 3, +4: about 25, 50, 75, 100% of cell sheet was affected respectively; M: masked (color of compounds made cells unseen); conditions: for Cytotoxicity on Vero cells (cell sheet affected): 24 h, morphological changes; for Safety effect on Vero cells (in words): Table 1, 24 h
Method: (§1) Compounds: 10 mg were dissolved in 1 mL (10% DMSO and 90% deionized water), sterilized by 1% antibiotic–antimycotic mixture and stored in −20.
(§2) Cells: Vero cell line was used. The cells were propagated in DMEM medium (Lonza, USA) supplemented with 10% fetal bovine serum (Gibco, USA), 1% antibiotic–antimycotic mixture (Lonza, USA).
Cytotoxic effect of compounds was measured by inoculation different doses of compounds on tested cells then examining them microscopically after 24 h to determine any morphological changes that appeared on cells as a result of being subjected to the compounds[46]. Vero cells were seeded onto 96-well plates, which were then incubated for the whole night. After a 24-hour incubation period at 37 °C in a humidified incubator with 5% CO2, compounds were injected at concentrations of 10, 20, 30, 40, 50, 60, 70, 80, 90, and 100 µg /100 µl. Any morphological changes were monitored under a microscope.

Cox B virus = assay: Plaque reduction assay against Cox B virus; assay type: cell-based; conditions: for inhibition at 20 µg/mL / inhibition at 40 µg/mL: Vero
Method: as §1, §2
Virus: Cox B virus was propagated and titrated to give final count of 0.9 × 10^5 viral particle/mL.
This test was done according to Tebas et al.[47], In a 12-well plate Vero cells (10^5 cells/mL) were cultivated for 1 day at 37 °C. The Cox B virus was mixed with the safe concentration of the compound and incubated for 1 h at 37 °C before being added to the cells. Following the removal of the growth media, the cells were injected with virus-extract combinations ([…]) and then rinsed with PBS (Phosphate Buffer Saline). Following a one-hour contact period for virus adsorption, the cell monolayer was supplemented with one milliliter of Dulbecco’s Modified Eagles Media (DMEM) containing 2% agarose. The plates were then allowed to solidify and incubated at 37 °C until the development of viral plaques. Formalin (10%) was added for 2 h then plates were stained with crystal violet. Control wells were included where untreated virus was incubated with Vero cells and finally plaques were counted and percentage reduction in plaques formation in comparison to control wells was recorded as following:
% inhibition = (viral count(untreated) - viral count(treated))/viral count(untreated)X100.

| melting point | SMILES | Cytotoxicity on Vero cells (cell sheet affected) (Vero cells; 10 µg/100µl) | Cytotoxicity on Vero cells (cell sheet affected) (Vero cells; 20 µg/100µl) | Cytotoxicity on Vero cells (cell sheet affected) (Vero cells; 30 µg/100µl) | Cytotoxicity on Vero cells (cell sheet affected) (Vero cells; 40 µg/100µl) | Cytotoxicity on Vero cells (cell sheet affected) (Vero cells; 50 µg/100µl) | Cytotoxicity on Vero cells (cell sheet affected) (Vero cells; 60 µg/100µl) | Cytotoxicity on Vero cells (cell sheet affected) (Vero cells; 70 µg/100µl) | Cytotoxicity on Vero cells (cell sheet affected) (Vero cells; 80 µg/100µl) | Cytotoxicity on Vero cells (cell sheet affected) (Vero cells; 90 µg/100µl) | Cytotoxicity on Vero cells (cell sheet affected) (Vero cells; 100 µg/100µl) | Safety effect on Vero cells (in words) (Vero cells) | Viral count (treated) (Cox B virus; 20 ug/mL) | Viral count (treated) (Cox B virus; 40 ug/mL) | inhibition at 20 µg/mL (Cox B virus) | inhibition at 40 µg/mL (Cox B virus) |
| --- | --- | --- | --- | --- | --- | --- | --- | --- | --- | --- | --- | --- | --- | --- | --- | --- |
| 130 to 132 °C | COc1ccc(OC)c(C=C2/C(=N/NC3=NC(=O)CS3)c3ccccc3/C2=N\NC2=NC(=O)CS2)c1 [9a, 2,2’-(((1E,3E)−2-(2,5-dimethoxybenzylidene)−1H-indene-1,3(2H)-diylidene)bis(hydrazin-1-yl-2-ylidene))bis(thiazol-4(5H)-one)] | - | - | - | - | - | - |  |  |  |  | highly toxic at low concentration | 1.6 × 10^7 | 1.6 × 10^7 | 0% | 0% |
| 231 to 233 °C | COc1ccc(OC)c(C=C2C(=NNC(N)=S)c3ccccc3C2=NNC(N)=S)c1 [compound 3, 2,2’-((1E,3Z)−2-((E)−2,5-dimethoxybenzylidene)−1H-indene-1,3(2H)-diylidene)bis-(hydrazine-1-carbothioamide)] | - | - | - | - | - | - | - | - | - | - | higher safety | 1.24 × 10^7 | 0.72 × 10^7 | 22% | 55% |
| 193 to 195 °C | COc1ccc(OC)c(C=C2/C(=N/Nc3nc(-c4ccccc4)cs3)c3ccccc3/C2=N\Nc2nc(-c3ccccc3)cs2)c1 [compound 13, 2,2’-(((1E,3E)−2-(2,5-dimethoxybenzylidene)−1H-indene-1,3(2H)-diylidene)bis(hydrazin-1-yl-2-ylidene))bis(4-phenylthiazole)] | - | - | - | - | - | - | - | - | - | - | higher safety | 1.6 × 10^7 | 1.6 × 10^7 | 0% | 0% |

| SMILES | melting point | Cytotoxicity on Vero cells (cell sheet affected) (Vero cells; 10 µg/100µl) | Cytotoxicity on Vero cells (cell sheet affected) (Vero cells; 20 µg/100µl) | Cytotoxicity on Vero cells (cell sheet affected) (Vero cells; 30 µg/100µl) | Cytotoxicity on Vero cells (cell sheet affected) (Vero cells; 40 µg/100µl) | Cytotoxicity on Vero cells (cell sheet affected) (Vero cells; 50 µg/100µl) | Cytotoxicity on Vero cells (cell sheet affected) (Vero cells; 60 µg/100µl) | Cytotoxicity on Vero cells (cell sheet affected) (Vero cells; 70 µg/100µl) | Cytotoxicity on Vero cells (cell sheet affected) (Vero cells; 80 µg/100µl) | Cytotoxicity on Vero cells (cell sheet affected) (Vero cells; 90 µg/100µl) | Cytotoxicity on Vero cells (cell sheet affected) (Vero cells; 100 µg/100µl) | Safety effect on Vero cells (in words) (Vero cells) | Viral count (treated) (Cox B virus; 20 ug/mL) | Viral count (treated) (Cox B virus; 40 ug/mL) | inhibition at 20 µg/mL (Cox B virus) | inhibition at 40 µg/mL (Cox B virus) |
| --- | --- | --- | --- | --- | --- | --- | --- | --- | --- | --- | --- | --- | --- | --- | --- | --- |
| COc1ccc(OC)c(C=C2/C(=N/Nc3nc(C)c(/N=N/c4ccc([N+](=O)[O-])cc4)s3)c3ccccc3/C2=N\Nc2nc(C)c(/N=N/c3ccc([N+](=O)[O-])cc3)s2)c1 [7d, 2,2’-(((1E,3E)−2-(2,5-dimethoxybenzylidene)−1H-indene-1,3(2H)-diylidene)bis(hydrazin-1-yl-2-ylidene))bis(4-methyl-5-((E)-(4-nitrophenyl)diazenyl)thiazole)] | 181 to 183 °C | - | - | - | - | - | - | - | - | - | - | higher safety | 1.6 × 10^7 | 0.54 × 10^7 | 0% | 66% |
